Data taken from PubChem BioAssay AID2060601 (Molecular Pharmacology Branch, DTP, NCI, 2025).
pIC50: −log10 of the molar value.

Test system: 874868-142-R-J2-PDC complex spheroids, growth % test/control
Test: Anticancer human tumor 874868-142-R-J2-PDC patient-derived head and neck squamous carcinoma cell line growth inhibition [CLK]
Conditions: for pIC50: curve of first compound; for viability, T/C: stronger effect = lower value; active = viability on the fitted dose curve at most 10% of control; inactive = the rest
Description: A high-throughput screen of multi-cell type tumor spheroids was designed to identify active combinations of […] and targeted small molecules. Complex spheroids include a stromal component modeled by human endothelial cells (HUVEC) and fibroblasts modeled by human mesenchymal stem cells (MSCs). The concentration ranges selected for each drug and investigational agent were based upon clinically achievable concentrations if the clinical Cmax of the agent was known.
Compounds. The drugs and investigational agents: cirtuvivint (SM08502; NSC835563), CC-671 (NSC850746), vemurafenib (NSC761431), tapotoclax (NSC804041), sotorasib (NSC818433), adagrasib (NSC831453), MRTX-1133 (NSC836407), BAY2416964 (NSC825713), copanlisib (NSC816437), inavolisib (NSC800729), abemaciclib (NSC768073), osimertinib (NSC779217), entinostat (NSC756642), eltanexor (KPT-8602, NSC794443), venetoclax (NSC766270), ceralasertib (NSC777638), bortezomib (NSC756655), olaparib (NSC753686), talazoparib (NSC767125), alisertib (NSC759677), peposertib (NSC802822), gemcitabine (NSC613327), 5-fluorouracil (NSC19893), SN-38 (NSC673596), oxaliplatin (NSC266046), paclitaxel (NSC125973), and doxorubicin (NSC123127), were obtained from the National Cancer Institute (NCI) Developmental Therapeutics Program Chemical Repository. The FDA-approved anticancer drug set is available from the Developmental Therapeutics Program at https://dtp.cancer.gov/organization/dscb/obtaining/available plates.htm. […] The stock solutions were prepared in dimethyl sulfoxide (DMSO, Sigma-Aldrich, St. Louis, MO, cat. D2650), except for the platinum complexes which were prepared in saline (Quality Biological, Gaithersburg, MD, cat. 114-055-101), at 800-fold the tested concentration and stored at -70 degrees C prior to their use. All drugs and investigational agents were tested over a range starting from a high concentration at or near the clinical Cmax and decreasing in half-log increments. If the clinical Cmax for an agent had not been determined, the highest concentration tested was 10 microM.
Cell Culture. All cells were maintained in an incubator at 37 degrees C and 5% CO2 with 95% humidity. The PDC lines were cultured according to standard operating procedures established by the NCI PDMR. Briefly, all PDCs were thawed and cultured in Matrigel-coated flasks prepared with a working solution of 1X Ham's F-12 nutrient mix, without supplementation (Invitrogen, Waltham, MA, cat. 11765054), 100 U/mL penicillin-streptomycin (Invitrogen, cat. 15140122), and 2.5% Matrigel (Corning Inc., Corning, NY, cat. 354248) for the first three passages. The 947758-054-R-J2-PDC line was cultured in 6B/Colon 1A media, which includes advanced DMEM/F-12 (Thermo Fisher Scientific, cat. 12634028), 10 mM HEPES (Thermo Fisher Scientific, cat. 15630080), 1X GlutaMAX supplement (Thermo Fisher Scientific, cat. 35050061), 0.1 mg/mL primocin (InvivoGen, cat. ant-pm-2), 10% defined fetal bovine serum, heat inactivated (HyClone Laboratories Inc., cat. SH30070.03HI), 1.25 mM N-Acetyl-L-cysteine (Sigma-Aldrich, cat. A9165), 10 mM nicotinamide (Sigma-Aldrich, cat. N0636), 1X B-27 supplement (Thermo Fisher Scientific, cat. 17504044), 1X N-2 supplement (Thermo Fisher Scientific, cat. 17502048), and 10 microM Y-27632 dihydrochloride (Tocris Bioscience, cat. 1254). The 876862-298-R-J1-PDC was cultured in 6E media, which includes all 6B/Colon 1A media components plus 50% L-WRN conditioned media (ATCC, cat. CRL-3276), 50 ng/mL recombinant human EGF recombinant protein (hEGF; Thermo Fisher Scientific, cat. PHG0311), 10 ng/mL recombinant human fibroblast growth factor 10 (hGFG-10; PeproTech, cat. 100-26), 1 ng/mL recombinant human fibroblast growth factor 2 (hFGF-2; PeproTech, cat. 100-18B), and 1 µM prostaglandin E2 (PGE2; Tocris, cat. 2296). The 227483-062-R1-J1-PDC line was cultured in Panc media, containing all 6E components except hFGF-2, with the addition of 500 nM SB-431542 (Selleckchem, cat. S1067) and 10 nM gastrin (Tocris, cat. 3006). […]

[1] = second compound 0.0316 µM, first compound 0.0316 µM
[2] = second compound 0.0316 µM, first compound 0.1 µM
[3] = second compound 0.0316 µM, first compound 0.316 µM
[4] = second compound 0.0316 µM, first compound 1 µM
[5] = second compound 0.0316 µM, first compound 3.16 µM
[6] = second compound 0.0316 µM, first compound 10 µM
[7] = second compound 0.1 µM, first compound 0.0316 µM
[8] = second compound 0.1 µM, first compound 0.1 µM
[9] = second compound 0.1 µM, first compound 0.316 µM
[10] = second compound 0.1 µM, first compound 1 µM
[11] = second compound 0.1 µM, first compound 3.16 µM
[12] = second compound 0.1 µM, first compound 10 µM
[13] = second compound 0.316 µM, first compound 0.0316 µM
[14] = second compound 0.316 µM, first compound 0.1 µM
[15] = second compound 0.316 µM, first compound 0.316 µM
[16] = second compound 0.316 µM, first compound 1 µM
[17] = second compound 0.316 µM, first compound 3.16 µM
[18] = second compound 0.316 µM, first compound 10 µM
[19] = second compound 1 µM, first compound 0.0316 µM
[20] = second compound 1 µM, first compound 0.1 µM
[21] = second compound 1 µM, first compound 0.316 µM
[22] = second compound 1 µM, first compound 1 µM
[23] = second compound 1 µM, first compound 3.16 µM
[24] = second compound 1 µM, first compound 10 µM
[25] = second compound 3.16 µM, first compound 0.0316 µM
[26] = second compound 3.16 µM, first compound 0.1 µM
[27] = second compound 3.16 µM, first compound 0.316 µM
[28] = second compound 3.16 µM, first compound 1 µM
[29] = second compound 3.16 µM, first compound 3.16 µM
[30] = second compound 3.16 µM, first compound 10 µM
[31] = second compound 10 µM, first compound 0.0316 µM
[32] = second compound 10 µM, first compound 0.1 µM
[33] = second compound 10 µM, first compound 0.316 µM
[34] = second compound 10 µM, first compound 1 µM
[35] = second compound 10 µM, first compound 3.16 µM
[36] = second compound 10 µM, first compound 10 µM
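Note: spheroids exposed to the compounds for 7 days.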

C#Cc1c(F)ccc2cc(O)cc(-c3ncc4c(N5CC6CCC(C5)N6)nc(OCC56CCCN5CC(F)C6)nc4c3F)c12 (stereo unspecified) + CN1CCN(c2cc(C(=O)Nc3cc4cc(-c5cnn(C)c5)ccc4cn3)ccn2)CC1
5.85: pIC50 (second compound 0.1 µM)
5.07: pIC50 (second compound 0.0316 µM)
> 7.50: pIC50 (second compound 0.316 µM) | pIC50 (second compound 1 µM) | pIC50 (second compound 3.16 µM) | pIC50 (second compound 10 µM)
inactive: viability, T/C [1] 98.2% | viability, T/C [2] 85.1% | viability, T/C [3] 76.3% | viability, T/C [4] 73% | viability, T/C [5] 49.8% | viability, T/C [6] 51.2% | viability, T/C [7] 69.2% | viability, T/C [8] 74.1% | viability, T/C [9] 68.8% | viability, T/C [10] 51.2% | viability, T/C [11] 41.5% | viability, T/C [12] 54.2% | viability, T/C [13] 21% | viability, T/C [14] 24% | viability, T/C [15] 17.3% | viability, T/C [16] 13% | viability, T/C [17] 15.5% | viability, T/C [18] 15.4%
active: viability, T/C [19] 0.39% | viability, T/C [20] 0.42% | viability, T/C [21] 0.39% | viability, T/C [22] 0.91% | viability, T/C [23] 0.5% | viability, T/C [24] 1.33% | viability, T/C [25] 0.37% | viability, T/C [26] 2.5% | viability, T/C [27] 0.31% | viability, T/C [28] 0.32% | viability, T/C [29] 0.26% | viability, T/C [30] 4.54% | viability, T/C [31] 0.53% | viability, T/C [32] 1.9% | viability, T/C [33] 3.6% | viability, T/C [34] 0.18% | viability, T/C [35] 0.9% | viability, T/C [36] 6.16%

C=C(F)C(=O)N1CCN(c2nc(OCC3CCCN3C)nc3c2CCN(c2cccc4cccc(Cl)c24)C3)CC1CC#N (stereo unspecified) + CN1CCN(c2cc(C(=O)Nc3cc4cc(-c5cnn(C)c5)ccc4cn3)ccn2)CC1
active: viability, T/C [12] 4.16% | viability, T/C [19] 0.51% | viability, T/C [20] 0.57% | viability, T/C [21] 2.72% | viability, T/C [22] 0.61% | viability, T/C [23] 0.21% | viability, T/C [24] 0.13% | viability, T/C [25] 0.32% | viability, T/C [26] 0.27% | viability, T/C [27] 0.26% | viability, T/C [28] 0.45% | viability, T/C [29] 1.88% | viability, T/C [30] 0.15% | viability, T/C [31] 0.24% | viability, T/C [32] 0.24% | viability, T/C [33] 2.62% | viability, T/C [34] 0.28% | viability, T/C [35] 0.53% | viability, T/C [36] 0.23%
5.38: pIC50 (second compound 0.0316 µM)
5.55: pIC50 (second compound 0.1 µM)
> 7.50: pIC50 (second compound 0.316 µM) | pIC50 (second compound 1 µM) | pIC50 (second compound 3.16 µM) | pIC50 (second compound 10 µM)
inactive: viability, T/C [1] 99.9% | viability, T/C [2] 85.3% | viability, T/C [3] 92% | viability, T/C [4] 93.2% | viability, T/C [5] 60.8% | viability, T/C [6] 15.7% | viability, T/C [7] 69.1% | viability, T/C [8] 70% | viability, T/C [9] 75% | viability, T/C [10] 62% | viability, T/C [11] 48.8% | viability, T/C [13] 16.7% | viability, T/C [14] 17.8% | viability, T/C [15] 22.6% | viability, T/C [16] 16.4% | viability, T/C [17] 23.8% | viability, T/C [18] 0.16%

CC(CO)NC(=O)c1cc(-c2ccc(Cl)cc2)nn(-c2cnn(C)c2)c1=O (stereo unspecified) + CN1CCN(c2cc(C(=O)Nc3cc4cc(-c5cnn(C)c5)ccc4cn3)ccn2)CC1
inactive: viability, T/C [1] 105% | viability, T/C [2] 99.2% | viability, T/C [3] 82.4% | viability, T/C [4] 92.8% | viability, T/C [5] 93% | viability, T/C [6] 83.8% | viability, T/C [7] 76.1% | viability, T/C [8] 72.2% | viability, T/C [9] 65.8% | viability, T/C [10] 67.9% | viability, T/C [11] 68.5% | viability, T/C [12] 77.2% | viability, T/C [13] 19.4% | viability, T/C [14] 24.8% | viability, T/C [15] 20.6% | viability, T/C [16] 19.1% | viability, T/C [17] 20.2% | viability, T/C [18] 29.1%
> 7.50: pIC50 (second compound 0.316 µM) | pIC50 (second compound 1 µM) | pIC50 (second compound 3.16 µM) | pIC50 (second compound 10 µM)
active: viability, T/C [19] 0.42% | viability, T/C [20] 5.08% | viability, T/C [21] 2.66% | viability, T/C [22] 0.31% | viability, T/C [23] 0.63% | viability, T/C [24] 1.19% | viability, T/C [25] 0.31% | viability, T/C [26] 0.77% | viability, T/C [27] 0.29% | viability, T/C [28] 0.32% | viability, T/C [29] 3.04% | viability, T/C [30] 2.75% | viability, T/C [31] 0.18% | viability, T/C [32] 0.21% | viability, T/C [33] 2.19% | viability, T/C [34] 0.22% | viability, T/C [35] 3.03% | viability, T/C [36] 0.28%
< 5.00: pIC50 (second compound 0.0316 µM) | pIC50 (second compound 0.1 µM)
